Several values for one entry are separate records, joined by “and”; a condition that tells them apart may be missing. Equal entries are not always repeated. Where two headings read alike, the source gives them in different places.
Legend:
BVDV = test: XTT cytopathicity assay, Bucast in combination with interferon alpha; format: cell-based, bovine viral diarrhoea virus
Experimental: (§1) MDBK cells were seeded into 96-well cell culture plates (Costar® 3596, Corning Incorp., USA) and allowed to grow to confluency. The cells were washed twice in warm phosphate buffered saline (PBS) and then infected with BVDV NADL (100 pfu/well) in 100 μl of DMEM supplemented with 5% horse serum, 2 mM L-glutamine, 50 U/ml penicillin and 50 μg/ml streptomycin. Some wells were mock infected to act as controls. A further 100 μl of DMEM supplemented as above, but containing different concentrations of test compound or no compound was then added to each well. Triplicate wells were used for each compound concentration. In parallel, uninfected cells were treated with compound to assess cytotoxicity. The plates were then incubated at 37° C. with 5% CO2. After 6 days 25 μl of a 1 mg/ml 2,3-bis[2-methoxy-4-nitro-5-sulphophenyl]-2H-tetrazolium-5-carboxanilide (XTT)/25 μM phenazine methosulphate (PMS) solution (XTT and PMS purchased from Sigma, Poole, Dorset, UK) was then added to each well and the plates incubated for 2 hours at 37° C. with 5% CO2. The absorbance was then determined at 450 nm. Data was plotted as O. D versus the log of the concentration of the compound and the 50% inhibitory concentration (IC50) computed.
The combination indexes (CI) were calculated using the formula of Suhnel (Antiviral Research, 13, 23-40). A CI value of less than 1 indicates a synergistic interaction and values of less than 0.8 are considered to indicate a statistically significant result.

MDBK cells [1] = test: XTT cytopathicity assay, uninfected cells (cytotoxicity); format: cell-based, bovine; details: for CC50: uninfected MDBK cells, 6 days
Experimental: as §1

BVDV NADL [2] = test: Plaque reduction assay in MDBK cells; format: cell-based, bovine viral diarrhoea virus; details: for inhibition of formation of BVDV plaques / IC50: MDBK cells; for inhibition of formation of BVDV plaques: FIG. 1; for concentrations at which only partial inhibition was shown: parallel plaque reduction experiments
Experimental: MDBK cells (NBL-1) (ATCC CCL22) derived from bovine kidney and cytopathic (cp) BVDV (strain NADL) (ATCC VR-534) were available from the American Type Culture Collection (ATCC).
(§2) MDBK cells were seeded into 6-well cell culture plates (Nunclon™, Nunc, Denmark) and allowed to grow to confluency. The cells are washed twice in warm phosphate buffered saline (PBS) and then infected with BVDV NADL (150 pfu/well) in 0.25 ml PBS containing 1% horse serum and 1 mM MgCl2. The cell culture plates were then incubated at 37° C. for one hour with 5% CO2 and the plates rocked every 15-20 minutes. The virus inoculum was then removed and replaced with 3.0 ml of 0.5% low-gelling temperature agarose overlay diluted in DMEM supplemented with 5% horse serum, 2 mM L-glutamine, 50 U/ml penicillin and 50 Lg/ml streptomycin and containing different concentrations of test compound or no compound. At least duplicate or triplicate wells were used for each concentration of test compound. The agarose was allowed to solidify at room temperature for 15 minutes and then incubated at 37° C. with 5% CO2. After 3 days incubation the cells were fixed by adding 1.5 ml of a […] solution over the agar overlay and leaving overnight. The agar was gently removed from the wells and the cells stained with 0.3% methylene blue in PBS for 10 minutes at room temperature. The excess stain was removed and the cells washed with PBS prior to drying of the plates and counting of the viral plaques microscopically. Dose response lines were plotted from the mean number of plaques present versus the log of the concentration of the compound. The 50% Inhibitory concentration (IC50) was computed after linear regression analysis.

MDBK cells [3] = test: Cytotoxicity in plaque reduction assay, microscopic examination of the cell monolayers; format: cell-based, bovine
Experimental: as §2
(§3) There was no sign of cytotoxicity at concentrations up to 1000 μM as judged by microscopic examination of the cell monolayers.

BVDV NADL [4] = test: XTT cytopathicity assay, infected cells; format: cell-based, bovine viral diarrhoea virus; details: for protection of MDBK cells against virus-induced cell death (cytopathic effect of BVDV): FIG. 2
Experimental: The cells were washed twice in warm phosphate buffered saline (PBS) and then infected with BVDV NADL (100 pfu/well) in 100 μl of DMEM supplemented with 5% horse serum, 2 mM L-glutamine, 50 U/ml penicillin and 50 μg/ml streptomycin. Some wells were mock infected to act as controls. A further 100 μl of DMEM supplemented as above, but containing different concentrations of test compound or no compound was then added to each well. Triplicate wells were used for each compound concentration. In parallel, uninfected cells were treated with compound to assess cytotoxicity. The plates were then incubated at 37° C. with 5% CO2. […] The absorbance was then determined at 450 nm.

[5] = XTT cytopathicity assay, uninfected cells (cytotoxicity); format: cell-based, bovine; details: bovine
Experimental: as §1

[6] = Cytotoxicity in plaque reduction assay, microscopic examination of the cell monolayers; format: cell-based, bovine; details: bovine
Experimental: as §2, §3

[7] = individual experiments, 150 pfu/well, 3 days, read-out: IC50
[8] = mean of experiments, read-out: Mean IC50 (μM) ± SD
[9] = MDBK cell monolayers, plaque reduction assay
[10] = individual experiments, MOI = 0.01, read-out: *IC50

Row | Molecule | cytotoxicity to uninfected treated cells (MDBK cells [1]; FIG. 2) | CC50 (MDBK cells [1]) | inhibition of formation of BVDV plaques (BVDV NADL [2]) | IC50 (BVDV NADL [2]; [7]) | IC50 (BVDV NADL [2]; [8]) | CC50 (MDBK cells [3]; [9]) | protection of MDBK cells against virus-induced cell death (cytopathic effect of BVDV) (BVDV NADL [4]) | IC50 (BVDV NADL [4]; MOI 0.0001, read-out: IC50) | IC50 (BVDV NADL [4]; MOI 0.001, read-out: IC50) | IC50 (BVDV NADL [4]; MOI 0.01, read-out: IC50) | IC50 (BVDV NADL [4]; MOI 0.1, read-out: IC50) | IC50 (BVDV NADL [4]; [10]) | concentrations at which only partial inhibition was shown (BVDV NADL [2]) | also measured
1 | CCCC(=O)O[C@H]1CN2CC[C@H](O)[C@@H]2[C@@H](O)[C@@H]1O [Bucast, 60-butanoylcastanospermine] | no cytotoxicity | > 300 µM | inhibited the formation of BVDV plaques in a dose dependent manner | 10 µM (2×) and 20 µM and 25 µM | 16.2 µM | > 1000 µM | protected MDBK cells against virus-induced cell death | 5 µM | 40 µM | 60 µM and 30 µM | 200 µM and 170 µM | 60 µM (2×) and 30 µM and 70 µM and 40 µM |  | IC50 (BVDV; fixed interferon α 0 IRU/well): 52 ± 16.4 µM; IC50 (BVDV; fixed interferon α 0.125 IRU/well): 13 µM; IC50 (BVDV; fixed interferon α 0.25 IRU/well): 4 µM; IC50 (BVDV; fixed interferon α 0.5 IRU/well): 3 µM; times more potent than castanospermine (BVDV NADL [2]; ratio of mean IC50): approximately 13 times; IC50 (BVDV NADL [4]; mean, MOI = 0.01, read-out: mean IC50): 36 µM and 52 µM
2 | OC1CN2CC[C@H](O)[C@@H]2C(O)[C@@H]1O (stereo partly drawn) [Castanospermine, [1S-(1α, 6β,7α,8β,8αβ)]-octahydro-1,6,7,8-indoli-zinetetrol] |  |  | inhibited the formation of BVDV plaques in a dose dependent manner | 190 µM and 280 µM |  |  | protected MDBK cells against virus-induced cell death |  |  |  |  | 500 µM |  | CC50 at 6 days [5]: > 1000 µM; cytotoxicity to uninfected treated cells (MDBK cells [1]): no cytotoxicity; IC50 (BVDV NADL [2]; Bovine viral diarrhea virus isolates and strains, MDBK, in Bos taurus, 72 h, individual experiments, 150 pfu/well, 3 days, read-out: IC50): 180 µM; IC50 (BVDV NADL [2]; Bovine viral diarrhea virus isolates and strains, MDBK, in Bos taurus, mean of experiments, read-out: Mean IC50 (μM) ± SD): 217 µM; CC50 at 3 days [6]: > 1000 µM; IC50 (BVDV NADL [4]; Bovine viral diarrhea virus isolates and strains, in Bos taurus, individual experiments, MOI = 0.01, read-out: *IC50): 300 µM; IC50 (BVDV NADL [4]; Bovine viral diarrhea virus isolates and strains, in Bos taurus, read-out: mean IC50 (μM), mean, MOI = 0.01): 400 µM
3 | CCCCN1C[C@H](O)[C@@H](O)[C@H](O)[C@H]1CO [N-Butyl-DNJ, N-butyl-deoxynojirimycin] | no cytotoxicity | > 1000 µM |  | > 300 µM and 250 µM |  | > 300 µM | neither N-butyl-DNJ or N-nonyl-DNJ demonstrated any protection | 55 µM | > 300 µM | > 300 µM | > 300 µM | > 1000 µM | > 100 µM | fold less potent than Bucast (BVDV NADL [4]; very low MOI): 10 fold
4 | CCCCCCCCCN1C[C@H](O)[C@@H](O)[C@H](O)[C@H]1CO [N-Nonyl-DNJ, N-nonyl-deoxynojirimycin] | clearly cytotoxic | 120 µM |  | 90 µM and 120 µM | 105 µM |  | neither N-butyl-DNJ or N-nonyl-DNJ demonstrated any protection |  |  |  |  | 60 µM and > 100 µM | > 300 µM | CC50 (μM) (MDBK cells [3]; [9]): Toxic @ 300; cytotoxicity to cells (MDBK cells [3]; at a concentration of 300 μM): clearly cytotoxic
5 | Interferon α |  |  |  |  |  |  |  |  |  |  |  |  |  | IC50 Interferon α (IRU/well) (BVDV; fixed Bucast 0 μM): 1.3 IRU/well; IC50 Interferon α (IRU/well) (BVDV; fixed Bucast 5 μM): 0.22 IRU/well; IC50 Interferon α (IRU/well) (BVDV; fixed Bucast 10 μM): 0.12 IRU/well; IC50 (BVDV NADL [4]; interferon alone): 1.3 interferon resistance units (IRU) per well
